According to US9776995B2, “Bicyclic sulfonamide compounds as sodium channel inhibitors” (AMGEN INC., priority 2013, dated 2017):
Like-named read-outs stand apart in the source and are kept apart here.

Columns and labels:
Nav 1.7 = Nav 1.7 (Homo sapiens (Human), UniProt Q15858); assay: in-vitro Nav 1.7 PX data; format: cell-based
Nav 1.5 = Nav 1.5 (Homo sapiens (Human), UniProt Q14524); assay: in-vitro Nav 1.5 PX data; settings: read-out: Nav 1.5 PX IC50
Nav 1.5, sequence (Q14524 whole entry): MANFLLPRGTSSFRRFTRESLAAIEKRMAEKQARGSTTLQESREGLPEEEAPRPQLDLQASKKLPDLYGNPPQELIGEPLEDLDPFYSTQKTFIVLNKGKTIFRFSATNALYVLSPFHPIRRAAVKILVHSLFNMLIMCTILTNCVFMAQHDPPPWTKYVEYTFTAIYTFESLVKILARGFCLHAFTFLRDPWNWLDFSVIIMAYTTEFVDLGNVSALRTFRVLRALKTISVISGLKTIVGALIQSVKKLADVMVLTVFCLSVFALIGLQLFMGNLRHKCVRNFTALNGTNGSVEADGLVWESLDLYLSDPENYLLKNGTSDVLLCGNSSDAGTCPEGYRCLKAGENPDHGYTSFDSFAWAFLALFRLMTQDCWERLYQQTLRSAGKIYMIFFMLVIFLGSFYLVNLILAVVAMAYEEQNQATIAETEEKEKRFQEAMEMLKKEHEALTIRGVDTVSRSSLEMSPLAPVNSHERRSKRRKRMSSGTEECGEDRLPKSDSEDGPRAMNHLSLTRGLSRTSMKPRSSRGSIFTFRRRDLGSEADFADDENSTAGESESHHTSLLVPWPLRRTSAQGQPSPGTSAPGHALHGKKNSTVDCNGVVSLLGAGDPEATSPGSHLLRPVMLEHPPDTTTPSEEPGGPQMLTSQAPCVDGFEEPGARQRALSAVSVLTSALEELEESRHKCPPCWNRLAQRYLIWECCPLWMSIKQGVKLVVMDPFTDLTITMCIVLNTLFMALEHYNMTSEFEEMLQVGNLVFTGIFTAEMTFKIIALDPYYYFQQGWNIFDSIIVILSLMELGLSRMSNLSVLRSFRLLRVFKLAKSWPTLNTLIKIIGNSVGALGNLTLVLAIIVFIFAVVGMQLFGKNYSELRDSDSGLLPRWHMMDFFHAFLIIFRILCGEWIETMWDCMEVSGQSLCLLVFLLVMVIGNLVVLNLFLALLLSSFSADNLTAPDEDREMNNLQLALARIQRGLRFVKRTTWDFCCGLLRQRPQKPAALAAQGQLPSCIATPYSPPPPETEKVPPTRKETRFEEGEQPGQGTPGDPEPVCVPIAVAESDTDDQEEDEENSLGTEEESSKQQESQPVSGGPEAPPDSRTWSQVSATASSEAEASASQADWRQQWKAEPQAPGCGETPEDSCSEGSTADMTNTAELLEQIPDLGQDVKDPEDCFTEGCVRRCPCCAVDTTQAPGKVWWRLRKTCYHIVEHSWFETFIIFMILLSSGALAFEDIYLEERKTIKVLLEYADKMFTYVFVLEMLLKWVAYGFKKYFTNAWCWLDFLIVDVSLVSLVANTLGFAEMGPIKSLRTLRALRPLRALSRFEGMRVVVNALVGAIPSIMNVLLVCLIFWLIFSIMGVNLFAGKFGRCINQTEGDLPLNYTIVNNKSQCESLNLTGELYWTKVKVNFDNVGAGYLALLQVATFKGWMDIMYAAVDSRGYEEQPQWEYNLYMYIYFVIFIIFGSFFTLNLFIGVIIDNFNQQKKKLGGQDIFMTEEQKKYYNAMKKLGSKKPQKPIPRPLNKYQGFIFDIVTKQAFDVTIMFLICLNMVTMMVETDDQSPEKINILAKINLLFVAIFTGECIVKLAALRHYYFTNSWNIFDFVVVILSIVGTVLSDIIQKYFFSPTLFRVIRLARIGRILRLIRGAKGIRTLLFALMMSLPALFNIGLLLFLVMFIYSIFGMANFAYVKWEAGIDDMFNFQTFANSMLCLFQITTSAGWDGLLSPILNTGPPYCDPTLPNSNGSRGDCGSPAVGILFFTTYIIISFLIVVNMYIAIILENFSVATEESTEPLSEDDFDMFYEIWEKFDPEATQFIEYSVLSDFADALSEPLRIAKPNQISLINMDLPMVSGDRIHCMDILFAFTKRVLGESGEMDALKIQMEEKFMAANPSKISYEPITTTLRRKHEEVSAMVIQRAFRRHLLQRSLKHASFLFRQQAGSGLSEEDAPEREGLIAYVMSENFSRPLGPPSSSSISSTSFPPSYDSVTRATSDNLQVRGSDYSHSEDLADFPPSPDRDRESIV

Nav 1.7, sequence (Q15858 whole entry): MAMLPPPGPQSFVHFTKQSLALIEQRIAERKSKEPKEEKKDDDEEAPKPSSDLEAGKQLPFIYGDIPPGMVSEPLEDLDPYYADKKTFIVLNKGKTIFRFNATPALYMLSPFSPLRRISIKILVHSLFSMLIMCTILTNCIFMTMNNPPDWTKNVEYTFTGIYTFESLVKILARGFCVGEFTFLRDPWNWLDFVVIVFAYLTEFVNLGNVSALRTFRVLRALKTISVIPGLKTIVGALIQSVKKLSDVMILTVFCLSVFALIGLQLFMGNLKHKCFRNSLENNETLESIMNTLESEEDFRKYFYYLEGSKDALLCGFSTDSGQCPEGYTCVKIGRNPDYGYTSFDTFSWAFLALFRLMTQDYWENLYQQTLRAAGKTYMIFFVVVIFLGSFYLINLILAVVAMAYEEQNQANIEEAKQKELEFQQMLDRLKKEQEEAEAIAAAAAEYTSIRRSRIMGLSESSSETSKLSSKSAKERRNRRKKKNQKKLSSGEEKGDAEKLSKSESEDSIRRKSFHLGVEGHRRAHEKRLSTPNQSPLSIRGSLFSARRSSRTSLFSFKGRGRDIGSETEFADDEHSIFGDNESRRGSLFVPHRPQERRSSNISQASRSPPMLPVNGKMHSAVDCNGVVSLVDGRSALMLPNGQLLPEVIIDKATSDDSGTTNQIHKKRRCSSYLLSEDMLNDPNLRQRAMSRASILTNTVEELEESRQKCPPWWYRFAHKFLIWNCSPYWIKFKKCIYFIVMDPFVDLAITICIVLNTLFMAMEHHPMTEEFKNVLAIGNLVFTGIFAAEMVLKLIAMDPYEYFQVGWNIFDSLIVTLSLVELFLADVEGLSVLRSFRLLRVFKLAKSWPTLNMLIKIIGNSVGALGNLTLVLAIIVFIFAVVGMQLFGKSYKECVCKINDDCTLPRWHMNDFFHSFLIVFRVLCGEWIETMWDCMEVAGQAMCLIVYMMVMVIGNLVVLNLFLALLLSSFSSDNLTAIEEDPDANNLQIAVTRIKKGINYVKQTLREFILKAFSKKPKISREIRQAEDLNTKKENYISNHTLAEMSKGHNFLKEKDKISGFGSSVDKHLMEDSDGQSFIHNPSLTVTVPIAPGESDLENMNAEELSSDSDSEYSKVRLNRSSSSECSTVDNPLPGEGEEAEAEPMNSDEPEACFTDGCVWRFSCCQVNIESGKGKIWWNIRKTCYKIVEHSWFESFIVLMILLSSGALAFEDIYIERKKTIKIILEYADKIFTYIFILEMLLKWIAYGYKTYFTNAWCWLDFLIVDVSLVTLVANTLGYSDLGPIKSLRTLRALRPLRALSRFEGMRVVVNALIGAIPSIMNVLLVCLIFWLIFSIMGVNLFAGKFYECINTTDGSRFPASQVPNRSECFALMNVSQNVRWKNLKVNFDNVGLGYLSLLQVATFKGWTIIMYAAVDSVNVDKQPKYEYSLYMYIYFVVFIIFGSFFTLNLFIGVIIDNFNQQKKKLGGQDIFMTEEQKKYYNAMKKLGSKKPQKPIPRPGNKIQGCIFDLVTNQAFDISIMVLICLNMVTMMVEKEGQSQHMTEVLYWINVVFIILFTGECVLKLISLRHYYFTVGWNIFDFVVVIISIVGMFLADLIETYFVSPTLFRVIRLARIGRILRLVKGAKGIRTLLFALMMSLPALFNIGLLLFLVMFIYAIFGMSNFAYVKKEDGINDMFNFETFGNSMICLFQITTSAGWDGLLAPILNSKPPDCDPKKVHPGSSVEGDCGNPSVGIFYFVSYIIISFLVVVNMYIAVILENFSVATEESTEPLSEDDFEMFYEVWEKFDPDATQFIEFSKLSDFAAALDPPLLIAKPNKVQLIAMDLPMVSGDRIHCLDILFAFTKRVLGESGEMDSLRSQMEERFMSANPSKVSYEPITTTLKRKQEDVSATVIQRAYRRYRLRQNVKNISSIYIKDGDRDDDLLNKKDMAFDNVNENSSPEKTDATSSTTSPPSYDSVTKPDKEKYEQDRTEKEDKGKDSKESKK

Structure (SMILES)	IC50 (Nav 1.7; in-vitro PX (PatchXpress) data) [nM]	IC50 (Nav 1.5; in-vitro PX (PatchXpress) data) [nM]	IC50 (Nav 1.7; in-vitro PX) [nM]	IC50 (Nav 1.5; in-vitro PX) [nM]
COc1cc(-c2cccc(F)c2)c(C#N)cc1-c1ncnc2cc(S(=O)(=O)Nc3ccon3)ccc12 [Example 203, 4-(2-cyano-3′-fluoro-5-methoxy-4-biphenylyl)-N-3-isoxazolyl-7-quinazolinesulfonamide]	28.8	> 10000		
N#CCOc1cc(-c2cccc(F)c2)ccc1-c1nccc2cc(S(=O)(=O)Nc3ccncn3)ccc12 [Example 208, 1-(3-(cyanomethoxy)-3′-fluoro-4-biphenylyl)-N-4-pyrimidinyl-6-isoquinolinesulfonamide]			230	> 30000
COc1cc(-c2cc(F)cnc2OC)ccc1-c1ccnc2cc(S(=O)(=O)Nc3nncs3)ccc12 [Example 209, 4-(4-(5-fluoro-2-methoxy-3-pyridinyl)-2-methoxyphenyl)-N-1,3,4-thiadiazol-2-yl-7-quinolinesulfonamide]			328	> 10000
COc1cc(-c2cccc(C(F)(F)F)c2)c(C#N)cc1-c1ncnc2cc(S(=O)(=O)Nc3ccon3)ccc12 [Example 211, 4-(2-cyano-5-methoxy-3′-(trifluoromethyl)-4-biphenylyl)-N-3-isoxazolyl-7-quinazolinesulfonamide]			16.9	> 10000
COc1cc(-c2cccc(F)c2)c(Cl)cc1-c1nn(C)c(=O)c2cc(S(=O)(=O)Nc3nncs3)ccc12 [Example 215, 1-(2-chloro-3′-fluoro-5-methoxy-4-biphenylyl)-3-methyl-4-oxo-N-1,3,4-thiadiazol-2-yl-3,4-dihydro-6-phthalazinesulfonamide]			82.3	> 10000
COc1cc(-c2cc(F)cc(F)c2)c(C#N)cc1-c1ncnc2cc(S(=O)(=O)Nc3nncs3)ccc12 [Example 216, 4-(2-cyano-3′,5′-difluoro-5-methoxy-4-biphenylyl)-N-1,3,4-thiadiazol-2-yl-7-quinazolinesulfonamide]			45.6	> 10000
COc1cc(-c2cccc(C)c2)c(C#N)cc1-c1nccc2cc(S(=O)(=O)Nc3nncs3)ccc12 [Example 217, 1-(2-cyano-5-methoxy-3′-methyl-4-biphenylyl)-N-1,3,4-thiadiazol-2-yl-6-isoquinolinesulfonamide]			22.3	> 10000
COc1cc(-c2ccc(C)c(F)c2)c(C#N)cc1-c1nccc2cc(S(=O)(=O)Nc3nncs3)ccc12 [Example 218, 1-(2-cyano-3′-fluoro-5-methoxy-4′-methyl-4-biphenylyl)-N-1,3,4-thiadiazol-2-yl-6-isoquinolinesulfonamide]			22.9	> 10000
COc1cc(-c2ccc(F)cc2)c(C#N)cc1-c1nccc2cc(S(=O)(=O)Nc3nncs3)ccc12 [Example 219, 1-(2-cyano-4′-fluoro-5-methoxy-4-biphenylyl)-N-1,3,4-thiadiazol-2-yl-6-isoquinolinesulfonamide]			33.8	> 10000
COc1cc(-c2cc(C)cc(F)c2)c(C#N)cc1-c1nccc2cc(S(=O)(=O)Nc3nncs3)ccc12 [Example 222, 1-(2-cyano-3′-fluoro-5-methoxy-5′-methyl-4-biphenylyl)-N-1,3,4-thiadiazol-2-yl-6-isoquinolinesulfonamide]			21.8	> 10000
COc1cc(-c2cccc(C(F)(F)F)c2)c(C#N)cc1-c1ncnc2cc(S(=O)(=O)Nc3nncs3)ccc12 [Example 226, 4-(2-cyano-5-methoxy-3′-(trifluoromethyl)-4-biphenylyl)-N-1,3,4-thiadiazol-2-yl-7-quinazolinesulfonamide]			11.6	> 10000
COc1cc(-c2ccc(C)c(Cl)c2)c(C#N)cc1-c1nccc2cc(S(=O)(=O)Nc3nncs3)ccc12 [Example 229, 1-(3′-chloro-2-cyano-5-methoxy-4′-methyl-4-biphenylyl)-N-1,3,4-thiadiazol-2-yl-6-isoquinolinesulfonamide]			20.5	> 10000
COc1cc(-c2ccc(F)c(C)c2)c(C#N)cc1-c1nccc2cc(S(=O)(=O)Nc3nncs3)ccc12 [Example 230, 1-(2-cyano-4′-fluoro-5-methoxy-3′-methyl-4-biphenylyl)-N-1,3,4-thiadiazol-2-yl-6-isoquinolinesulfonamide]			12.7	> 10000
N#CCOc1cc(-c2cccc(F)c2)ccc1-c1nccc2cc(S(=O)(=O)Nc3ccon3)ccc12 [Example 231, 1-(3-(cyanomethoxy)-3′-fluoro-4-biphenylyl)-N-3-isoxazolyl-6-isoquinolinesulfonamide]			140	> 30000
COc1cc(-c2cc(F)cc(F)c2)c(Cl)cc1-c1nn(C)c(=O)c2cc(S(=O)(=O)Nc3ccon3)ccc12 [Example 233, 1-(2-chloro-3′,5′-difluoro-5-methoxy-4-biphenylyl)-N-3-isoxazolyl-3-methyl-4-oxo-3,4-dihydro-6-phthalazinesulfonamide]			138	> 30000
COc1cc(-c2cc(F)cc(F)c2)c(Cl)cc1-c1nn(C)c(=O)c2cc(S(=O)(=O)Nc3nncs3)ccc12 [Example 235, 1-(2-chloro-3′,5′-difluoro-5-methoxy-4-biphenylyl)-3-methyl-4-oxo-N-1,3,4-thiadiazol-2-yl-3,4-dihydro-6-phthalazinesulfonamide]			47.1	> 10000
COc1nc(N2CC(F)(F)C2)c(Cl)cc1-c1nccc2cc(S(=O)(=O)Nc3nncs3)ccc12 [Example 236, 1-(5-chloro-6-(3,3-difluoro-1-azetidinyl)-2-methoxy-3-pyridinyl)-N-1,3,4-thiadiazol-2-yl-6-isoquinolinesulfonamide]			382	> 30000
COc1nc(N2CCC(F)(F)C2)c(Cl)cc1-c1nccc2cc(S(=O)(=O)Nc3nncs3)ccc12 [Example 237, 1-(5-chloro-6-(3,3-difluoro-1-pyrrolidinyl)-2-methoxy-3-pyridinyl)-N-1,3,4-thiadiazol-2-yl-6-isoquinolinesulfonamide]			336	> 30000
N#CCOc1cc(-c2cccc(F)c2)ccc1-c1nccc2cc(S(=O)(=O)Nc3nncs3)ccc12 [Example 238, 1-(3-(cyanomethoxy)-3′-fluoro-4-biphenylyl)-N-1,3,4-thiadiazol-2-yl-6-isoquinolinesulfonamide]			144	> 10000
COc1cc(-c2cccc(F)c2)c(Cl)cc1-c1ccnc2cc(S(=O)(=O)Nc3ccon3)ccc12 [Example 239, 4-(2-chloro-3′-fluoro-5-methoxy-4-biphenylyl)-N-3-isoxazolyl-7-quinolinesulfonamide]			115	11200
COc1cc(-c2cccc(F)c2)c(C#N)cc1-c1ncnc2cc(S(=O)(=O)Nc3nncs3)ccc12 [Example 241, 4-(2-cyano-3′-fluoro-5-methoxy-4-biphenylyl)-N-1,3,4-thiadiazol-2-yl-7-quinazolinesulfonamide]			69.1	> 10000
COc1cc(-c2cccc(F)c2)c(Cl)cc1-c1ncnc2cc(S(=O)(=O)Nc3ncccn3)ccc12 [Example 243, 4-(2-chloro-3′-fluoro-5-methoxy-4-biphenylyl)-N-2-pyrimidinyl-7-quinazolinesulfonamide]			80.3	> 10000
COc1nc(N2CCC(F)(F)CC2)c(Cl)cc1-c1nccc2cc(S(=O)(=O)Nc3nncs3)ccc12 [Example 244, 1-(5-chloro-6-(4,4-difluoro-1-piperidinyl)-2-methoxy-3-pyridinyl)-N-1,3,4-thiadiazol-2-yl-6-isoquinolinesulfonamide]			424	> 30000
